Columns and labels:
human TLR7 = human TLR7 (Homo sapiens (Human), UniProt Q9NYK1); assay: HEK-Blue human TLR7 cells, NF-κB SEAP reporter assay; type: cell-based; details: stimulation for 20 hours
Excerpt: (§1) For TLR8 and TLR7 activity testing, HEK-Blue human TLR8 or TLR7 cells (Invivogen, San Diego, Calif., USA) are used, respectively. These cells are designed for studying the stimulation of human TLR8 or TLR7 by monitoring the activation of NF-κB. A SEAP (secreted embryonic alkaline phosphatase) reporter gene is placed under the control of the IFN-b minimal promoter fused to five NF-κB and AP-1-binding sites. Therefore the reporter expression is regulated by the NF-κB promoter upon stimulation of human TLR8 or TLR7 for 20 hours. The cell culture supernatant SEAP reporter activity was determined using Quanti Blue kit (Invivogen, San Diego, Ca, USA) at a wavelength of 640 nm, a detection medium that turns purple/blue in the presence of alkaline phosphatase. EC50 values were determined using Activity Base analysis (ID Business Solution, Limited).

human TLR8 = human TLR8 (Homo sapiens (Human), UniProt Q9NR97); assay: HEK-Blue human TLR8 cells, NF-κB SEAP reporter assay; type: cell-based; details: stimulation for 20 hours
human TLR8, sequence (Q9NR97 27-1041): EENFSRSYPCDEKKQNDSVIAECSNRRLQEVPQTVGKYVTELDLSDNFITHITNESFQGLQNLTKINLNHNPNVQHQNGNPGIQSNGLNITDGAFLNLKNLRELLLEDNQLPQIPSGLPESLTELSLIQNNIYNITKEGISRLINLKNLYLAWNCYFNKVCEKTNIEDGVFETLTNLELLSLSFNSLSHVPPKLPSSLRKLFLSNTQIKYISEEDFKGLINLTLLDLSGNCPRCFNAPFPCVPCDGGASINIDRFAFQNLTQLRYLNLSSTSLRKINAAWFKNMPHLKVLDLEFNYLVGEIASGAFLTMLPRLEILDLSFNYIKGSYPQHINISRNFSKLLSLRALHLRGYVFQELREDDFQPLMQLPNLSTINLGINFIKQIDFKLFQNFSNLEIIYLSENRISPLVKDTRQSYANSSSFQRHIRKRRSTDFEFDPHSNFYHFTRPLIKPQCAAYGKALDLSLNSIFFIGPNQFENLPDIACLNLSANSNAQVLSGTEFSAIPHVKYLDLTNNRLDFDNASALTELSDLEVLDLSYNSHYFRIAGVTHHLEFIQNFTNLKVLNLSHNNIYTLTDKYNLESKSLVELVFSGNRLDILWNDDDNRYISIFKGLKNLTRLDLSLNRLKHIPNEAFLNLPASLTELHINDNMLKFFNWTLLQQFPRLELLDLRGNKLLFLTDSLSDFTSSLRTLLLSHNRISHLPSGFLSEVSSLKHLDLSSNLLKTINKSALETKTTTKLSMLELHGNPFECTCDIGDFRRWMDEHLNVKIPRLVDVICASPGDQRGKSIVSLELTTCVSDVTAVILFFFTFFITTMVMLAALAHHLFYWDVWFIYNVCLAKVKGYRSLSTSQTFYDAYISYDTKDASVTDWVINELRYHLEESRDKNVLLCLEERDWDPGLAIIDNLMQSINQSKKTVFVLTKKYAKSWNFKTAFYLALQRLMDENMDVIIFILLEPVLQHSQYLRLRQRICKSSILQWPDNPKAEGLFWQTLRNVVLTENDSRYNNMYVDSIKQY
Excerpt: as §1

human TLR7, sequence (Q9NYK1 27-1049): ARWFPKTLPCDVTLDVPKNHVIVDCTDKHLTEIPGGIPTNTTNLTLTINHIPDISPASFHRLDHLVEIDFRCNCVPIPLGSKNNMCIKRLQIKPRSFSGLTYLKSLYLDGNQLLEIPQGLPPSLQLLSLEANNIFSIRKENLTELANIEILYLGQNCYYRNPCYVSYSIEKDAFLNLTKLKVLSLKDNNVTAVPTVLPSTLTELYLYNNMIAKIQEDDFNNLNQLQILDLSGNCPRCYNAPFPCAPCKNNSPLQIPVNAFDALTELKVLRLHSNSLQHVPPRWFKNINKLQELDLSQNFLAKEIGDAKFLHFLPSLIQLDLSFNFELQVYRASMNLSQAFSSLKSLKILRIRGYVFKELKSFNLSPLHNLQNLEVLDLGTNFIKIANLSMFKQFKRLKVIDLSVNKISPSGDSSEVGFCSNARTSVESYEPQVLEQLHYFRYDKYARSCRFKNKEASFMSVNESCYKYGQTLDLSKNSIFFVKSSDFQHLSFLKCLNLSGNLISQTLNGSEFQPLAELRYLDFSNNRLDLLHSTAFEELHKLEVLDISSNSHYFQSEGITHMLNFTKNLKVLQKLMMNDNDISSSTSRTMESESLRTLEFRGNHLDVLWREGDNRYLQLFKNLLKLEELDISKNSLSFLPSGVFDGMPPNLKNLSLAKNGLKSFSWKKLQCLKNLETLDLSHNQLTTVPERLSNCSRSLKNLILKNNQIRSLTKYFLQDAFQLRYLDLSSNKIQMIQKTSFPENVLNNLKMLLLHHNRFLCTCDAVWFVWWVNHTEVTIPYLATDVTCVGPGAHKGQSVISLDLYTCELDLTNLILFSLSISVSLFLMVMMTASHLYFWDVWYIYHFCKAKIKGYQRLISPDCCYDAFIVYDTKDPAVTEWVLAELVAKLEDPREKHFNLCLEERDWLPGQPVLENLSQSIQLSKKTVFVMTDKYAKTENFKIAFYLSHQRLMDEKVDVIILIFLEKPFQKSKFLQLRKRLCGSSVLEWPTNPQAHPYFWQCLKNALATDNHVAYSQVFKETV

| Structure (SMILES) | EC50 (human TLR7) | EC50 (human TLR8) |
| --- | --- | --- |
| CCCN(CCC)C(=O)C1=Cc2ccc(C(=O)Nc3cncc(CCCN)c3)cc2N=C(N)C1 [Example 50, 2-Amino-N8-[5-(3-aminopropyl)-3-pyridyl]-N4,N4-dipropyl-3H-1-benzazepine-4,8-dicarboxamide] | > 100 µM | 10 nM |
| CCCN(CCC(F)(F)F)C(=O)C1=Cc2ccc(C(=O)Nc3cccc(C)c3)cc2N=C(N)C1 [Example 51, 2-Amino-N8-(m-tolyl)-N4-propyl-N4-(3,3,3-trifluoropropyl)-3H-1-benzazepine-4,8-dicarboxamide] | 22 µM | 2 nM |
| CCCN(CCC)C(=O)C1=Cc2ccc(C(=O)Nc3cncc(/C=C\CN)c3)cc2N=C(N)C1 [Example 52, 2-Amino-N8-[5-[(Z)-3-aminoprop-1-enyl]-3-pyridyl]-N4,N4-dipropyl-3H-1-benzazepine-4,8-dicarboxamide] | > 100 µM | 6 nM |
| CCCN(CC1CC1)C(=O)C1=Cc2ccc(C(=O)Nc3cccc(C)c3)cc2N=C(N)C1 [Example 53, 2-Amino-N4-(cyclopropylmethyl)-N8-(m-tolyl)-N4-propyl-3H-1-benzazepine-4,8-dicarboxamide] | 20 µM | 2 nM |
| CCCN(CCC)C(=O)C1=Cc2ccc(C(=O)Nc3cccc(CCN)c3)cc2N=C(N)C1 [Example 54, 2-Amino-N8-[3-(2-aminoethyl)phenyl]-N4,N4-dipropyl-3H-1-benzazepine-4,8-dicarboxamide] | > 100 µM | 3 nM |
| CCCN(CC(C)C)C(=O)C1=Cc2ccc(C(=O)Nc3cccc(C)c3)cc2N=C(N)C1 [Example 55, 2-Amino-N4-isobutyl-N8-(m-tolyl)-N4-propyl-3H-1-benzazepine-4,8-dicarboxamide] | > 100 µM | 2 nM |
| CCCN(CCCOCCCN)C(=O)C1=Cc2ccc(C(=O)Nc3cccc(C)c3)cc2N=C(N)C1 [Example 56, 2-Amino-N4-[3-(3-aminopropoxy)propyl]-N8-(m-tolyl)-N4-propyl-3H-1-benzazepine-4,8-dicarboxamide] | > 100 µM | 10 nM |
| CCCN(CCC)C(=O)C1=Cc2ccc(C(=O)Nc3cccc(CCCCCN)c3)cc2N=C(N)C1 [Example 57, 2-Amino-N8-[3-(5-aminopentyl)phenyl]-N4,N4-dipropyl-3H-1-benzazepine-4,8-dicarboxamide] | > 100 µM | 25 nM |
| CCCN(CCC)C(=O)C1=Cc2ccc(C(=O)Nc3ccc(CCCCCN)cc3)cc2N=C(N)C1 [Example 58, 2-Amino-N8-[4-(5-aminopentyl)phenyl]-N4,N4-dipropyl-3H-1-benzazepine-4,8-dicarboxamide] | > 100 µM | 15 nM |
| CCCN(CCC)C(=O)C1=Cc2ccc(C(=O)Nc3cccc(CCCN)c3)cc2N=C(N)C1 [Example 59, 2-Amino-N8-[3-(3-aminopropyl)phenyl]-N4,N4-dipropyl-3H-1-benzazepine-4,8-dicarboxamide] | > 100 µM | 3 nM |
| CCCN(Cc1ccc(CN)cc1)C(=O)C1=Cc2ccc(C(=O)Nc3cccc(C)c3)cc2N=C(N)C1 [Example 60, 2-Amino-N4-[[4-(aminomethyl)phenyl]methyl]-N8-(m-tolyl)-N4-propyl-3H-1-benzazepine-4,8-dicarboxamide] | > 100 µM | 27 nM |
| CCCN(CCC)C(=O)C1=Cc2ccc(C(=O)Nc3ccc(CCCN)cc3)cc2N=C(N)C1 [Example 61, 2-Amino-N8-[4-(3-aminopropyl)phenyl]-N4,N4-dipropyl-3H-1-benzazepine-4,8-dicarboxamide] | > 100 µM | 5 nM |
| CCCN(CCC)C(=O)C1=Cc2ccc(C(=O)Nc3cccc(CCCCN)c3)cc2N=C(N)C1 [Example 62] | > 100 µM | 7 nM |
| CCCN(CCC)C(=O)C1=Cc2ccc(C(=O)Nc3ccc(F)c(CCN)c3)cc2N=C(N)C1 [Example 63, 2-Amino-N8-[3-(2-aminoethyl)-4-fluoro-phenyl]-N4,N4-dipropyl-3H-1-benzazepine-4,8-dicarboxamide] | > 100 µM | 11 nM |
| CCCN(CCC)C(=O)C1=Cc2ccc(C(=O)Nc3cc(Cl)cc(CCN)c3)cc2N=C(N)C1 [Example 64, 2-Amino-N8-[3-(2-aminoethyl)-5-chloro-phenyl]-N4,N4-dipropyl-3H-1-benzazepine-4,8-dicarboxamide] | > 100 µM | 29 nM |
| CCCCN(CCO)C(=O)C1=Cc2ccc(C(=O)Nc3cccc(C)c3)cc2N=C(N)C1 [Example 65, 2-Amino-N4-butyl-N4-(2-hydroxyethyl)-N8-(m-tolyl)-3H-1-benzazepine-4,8-dicarboxamide] | > 100 µM | 6 nM |
| CCCN(CCC)C(=O)C1=Cc2ccc(C(=O)Nc3cncc(OCCN)c3)cc2N=C(N)C1 [Example 66, 2-Amino-N8-[5-(2-aminoethoxy)-3-pyridyl]-N4,N4-dipropyl-3H-1-benzazepine-4,8-dicarboxamide] | > 100 µM | 31 nM |
| CCCN(CCC)C(=O)C1=Cc2ccc(C(=O)Nc3cncc(CNC(=O)OCc4ccccc4)c3)cc2N=C(N)C1 [Example 67, Benzyl N-[[5-[[2-amino-4-(dipropylcarbamoyl)-3H-1-benzazepine-8-carbonyl]amino]-3-pyridyl]methyl]carbamate] | > 100 µM | 4 nM |
| CCCN(CCC)C(=O)C1=Cc2ccc(C(=O)Nc3cncc(/C=C/CN)c3)cc2N=C(N)C1 [Example 68, 2-Amino-N8-[5-[(E)-3-aminoprop-1-enyl]-3-pyridyl]-N4,N4-dipropyl-3H-1-benzazepine-4,8-dicarboxamide] | > 100 µM | 8 nM |
| CCCN(CCC)C(=O)C1=Cc2ccc(C(=O)Nc3cncc(CCc4ccccc4)c3)cc2N=C(N)C1 [Example 69, 2-Amino-N8-[5-(2-phenylethyl)-3-pyridyl]-N4,N4-dipropyl-3H-1-benzazepine-4,8-dicarboxamide] | > 100 µM | 8 nM |
| CCCN(CCC)C(=O)C1=Cc2ccc(C(=O)Nc3cncc(CCc4ccc(OC)cc4)c3)cc2N=C(N)C1 [Example 70, 2-Amino-N8-[5-[2-(4-methoxyphenyl)ethyl]-3-pyridyl]-N4,N4-dipropyl-3H-1-benzazepine-4,8-dicarboxamide] | > 100 µM | 12 nM |
| CCCN(CCC)C(=O)C1=Cc2ccc(C(=O)Nc3cncc(CCc4ccc(CN)cc4)c3)cc2N=C(N)C1 [Example 71, 2-Amino-N8-[5-[2-[4-(aminomethyl)phenyl]ethyl]-3-pyridyl]-N4,N4-dipropyl-3H-1-benzazepine-4,8-dicarboxamide] | > 100 µM | 29 nM |
| CCCN(CCC)C(=O)C1=Cc2ccc(C(=O)Nc3cncc(CCCCCN)c3)cc2N=C(N)C1 [Example 72, 2-Amino-N8-[5-(5-aminopentyl)-3-pyridyl]-N4,N4-dipropyl-3H-1-benzazepine-4,8-dicarboxamide] | > 100 µM | 25 nM |
| CCCN(CCC)C(=O)C1=Cc2ccc(C(=O)Nc3cncc(CCc4cccc(OC)c4)c3)cc2N=C(N)C1 [Example 73, 2-Amino-N8-[5-[2-(3-methoxyphenyl)ethyl]-3-pyridyl]-N4,N4-dipropyl-3H-1-benzazepine-4,8-dicarboxamide] | > 100 µM | 10 nM |
| CCCN(CCC)C(=O)C1=Cc2ccc(C(=O)Nc3cncc(CCCCCCN)c3)cc2N=C(N)C1 [Example 74, 2-Amino-N8-[5-(6-aminohexyl)-3-pyridyl]-N4,N4-dipropyl-3H-1-benzazepine-4,8-dicarboxamide] | > 100 µM | 27 nM |

— patent publication US9475775B2, “Benzazepine dicarboxamide compounds” (Hoffmann-La Roche Inc., priority 2015, dated 2016)
